Assay results reported in patent publication US4634702A, “Quinoxalinemethanol compounds for combatting swine dysentery and as growth promoting factors, method of preparation, and compositions containing them” (priority 1983, dated 1987).
In brackets after ≈: the same amount, converted by molar mass.

Key:
[1] = growth promotion in baby-swines fed G 8 in rations; assay type: in vivo, swine
Experimental: The effect of compound G 8 was tested in feed rations for baby-swines.
Compound G 8 was added at a dosage level of 100 g/ton of feed. Five replicate groups of 10 animals (5 males and 5 females), age one day, were fed the ration containing G 8 and compared to 5 replicate groups of animals (5 males and 5 females) which received the same ration but without G 8.
The test period was 28 days.

[2] = Acute toxicity of G 8 in the guinea pig by oral administration; assay type: in vivo
Experimental: (§1) Furthermore, G8 compound was tested for acute toxicity by several modes of administration in four species, namely mouse, rat, guinea pig and rabbit. […] The test results are given below in tables 1, 2, 3 and 4.
Acute toxicity of G 8 in the guinea pig by oral administration

[3] = Acute Toxicity of G 8 in the Rat; assay type: in vivo; settings: for Dead/Treated within 21 days / Body Weight (m ± SEM), Termination: first experiment
Experimental: as §1
Acute Toxicity of G 8 in the Rat

[4] = Chronic toxicity in female mice; assay type: in vivo
From the text: Chronic toxicity has been studied in female mice.

[5] = Acute toxicity of G 8 in female mice; assay type: in vivo, mouse
Experimental: as §1
Acute toxicity of G 8 in female mice

[6] = Subacute toxicity of G 8 in female rats; assay type: in vivo, rat; settings: 2 g/kg/day, gastric gavage, 21 days
Experimental: (§2) In view of the favorable acute toxicity data, compound G 8 was administered orally in sub-acute, but relatively large doses, to mice and rats for 15 days.
Subacute toxicity of G 8 in female rats
Daily dose: […] of G 8 in female rats by gastric
Daily dose: 2 g/kg/day of G 8 by gastric gavage for 21 days

[7] = Acute toxicity of G 8 in the rabbit by esophageal administration; assay type: in vivo
Experimental: as §1
Acute toxicity of G 8 in the rabbit by esophageal administration

swine dysentery = swine dysentery in swine herd fed G 8 in rations; assay type: in vivo; settings: 400 g/ton in rations, herd with dysentery
Experimental: Compound G 8 is mixed with swine feed rations at a level of 200 g/ton and was fed to swine housed in an area where there has been a previous outbreak of swine dysentery. Another herd was housed in a similar area, where there has been a previous outbreak of dysentery. They were fed the same rations as the first herd, but with no G 8 or other drug.
Many members of the herd developed symptoms of dysentery. G 8 was then added with the rations at a level of 400 g/ton.

[8] = teratogenetic study with male and female mice and rats; assay type: in vivo
Experimental: Furthermore, teratogenetic study was conducted with male and female mice and rats.

[9] = acute toxicity by several modes of administration in four species (overall); assay type: in vivo, guinea pig and rabbit; settings: mouse, rat, guinea pig, rabbit
Experimental: as §1

[10] = Subacute toxicity of G 8 in the mouse; assay type: in vivo; settings: for SGPT / SGOT: 1 g/kg/day, 24 hrs. after last dose
Experimental: as §2
Subacute toxicity of G 8 in the mouse
Daily dose: 500 mg. G 8 by gastric gavage for 15 days
Daily dose: 1 g/kg/day for 15 days
b. SGOT and SGPT (24 hrs. after last dose)

Treponema hyodysenteriae = experiment: in vitro minimum inhibitory concentration / activity against Treponema hyodysenteriae; assay type: cell-based
Experimental: Compound G 8 has been tested "in vitro" against Treponema hyodysenteriae by a known technique. The minimum inhibitory concentration (the lowest concentration of compound in a dilution series where growth is inhibited) was 0.1 μg/ml.

## COc1ccc(O)c(C(O)c2c[n+]([O-])c3ccccc3[n+]2[O-])c1 (centres unmarked) [G 8, quinoxalyl-N^1,N^4-dioxide-2-hydroxy-5-methoxy-phenylcarbinol]
[1]; 100 g/ton of feed, 28 days, combined average vs ration without G 8
  Improvement, % (body weight gain): 3.1%
[1]; 100 g/ton of feed, 28 days, vs ration without G 8
  Improvement, % (feed/gain ratio): 2.8%
[1]; 100 g/ton of feed, 28 days, without G 8: 1.82
  Feed/gain ratio: 1.77
[1]; 100 g/ton of feed, 28 days, without G 8: 5740 g
  Body weight gain/swine, Females: 5880 g
[1]; 100 g/ton of feed, 28 days, without G 8: 6000
  Body weight gain/swine, Combined average: 6190
[1]; 100 g/ton of feed, 28 days, without G 8: 6150 g
  Body weight gain/swine, Males: 6480 g
[1]; qualitative statement
  growth promoting action: effective growth promoting factor
[2]; 500 mg/kg
  Dead/Treated within 21 days: 0/4
[2]; 1000 mg/kg
  Dead/Treated within 21 days: 1/4
[2]; 2000 mg/kg
  Dead/Treated within 21 days: 5/6
[2]; 4000 mg/kg
  Dead/Treated within 21 days: 6/6
[3]; cumulative data regardless of animal sex, intraperitoneal, 500 mg/kg
  Dead/Treated within 7 days: 4/16
[3]; cumulative data regardless of animal sex, oral, 4000 mg/kg
  Dead/Treated within 7 days: 0/16
[3]; female, endoperitoneal, 500 mg/kg
  Dead/Treated within 21 days: 2/4
[3]; female, oral, 4000 mg/kg
  Dead/Treated within 21 days: 0/4
[3]; female, oral, 4000 mg/kg, start 201.2 ± 4.2, vehicle 189.2 ± 3.9 to 230.0 ± 10.5
  Body Weight (m ± SEM), Termination: 238.2 ± 12.1 g
[3]; male, endoperitoneal, 500 mg/kg
  Dead/Treated within 21 days: 1/4
[3]; male, endoperitoneal, 500 mg/kg, start 234.0 ± 6.2, vehicle 230.0 ± 5.7 to 324.0 ± 8.7
  Body Weight (m ± SEM), Termination: 314.3 ± 10.3 g
[3]; male, oral, 4000 mg/kg
  Dead/Treated within 21 days: 0/4
[3]; male, oral, 4000 mg/kg, start 234.5 ± 13.8, vehicle 233.7 ± 3.7 to 331.0 ± 0.5
  Body Weight (m ± SEM), Termination: 288.7 ± 13.8 g
[3]; second experiment, female, intraperitoneal, 500 mg/kg
  Dead/Treated within 7 days: 0/4
[3]; second experiment, female, intraperitoneal, 500 mg/kg, start 232.5 ± 5.9
  Body weight (±SE), Termination: 218.2 ± 7.0 g
[3]; second experiment, female, oral, 4000 mg/kg
  Dead/Treated within 7 days: 0/4
[3]; second experiment, female, oral, 4000 mg/kg, start 252.0 ± 16.6
  Body weight (±SE), Termination: 253.5 ± 12.1 g
[3]; second experiment, male, intraperitoneal, 500 mg/kg
  Dead/Treated within 7 days: 2/4
[3]; second experiment, male, oral, 4000 mg/kg
  Dead/Treated within 7 days: 0/4
[3]; second experiment, male, oral, 4000 mg/kg, start 222.5 ± 6.2
  Body weight (±SE), Termination: 231.7 ± 15.7 g
[4]
  Chronic toxicity: very satisfactory
[5]; endoperitoneal, 250 mg/kg, after 7 days
  Dead/Treated animals: 0/18
[5]; endoperitoneal, 500 mg/kg, after 7 days
  Dead/Treated animals: 6/12
[5]; endoperitoneal, 1000 mg/kg, after 2 days
  Dead/Treated animals: 6/6
[5]; endoperitoneal, 1000 mg/kg, after 7 days
  Dead/Treated animals: 6/6
[5]; endoperitoneal, 2000 mg/kg, after 1 day
  Dead/Treated animals: 6/6
[5]; endoperitoneal, 2000 mg/kg, after 7 days
  Dead/Treated animals: 6/6
[5]; oral, 1000 mg/kg, after 7 days
  Dead/Treated animals: 0/12
[5]; oral, 2000 mg/kg, after 7 days
  Dead/Treated animals: 0/12
[5]; oral, 4000 mg/kg, after 4 days
  Dead/Treated animals: 1/12
[5]; oral, 4000 mg/kg, after 7 days
  Dead/Treated animals: 1/12
[6]; 5 animals, NS, vehicle 0.85 ± 0.06
  Average percent weight of fresh organs (m ± SE), Lung: 1.08 ± 0.09%
[6]; 5 animals, NS, vehicle 0.95 ± 0.04
  Average percent weight of fresh organs (m ± SE), Kidneys: 1.04 ± 0.3%
[6]; 5 animals, vehicle 3.45 ± 0.07
  Average percent weight of fresh organs (m ± SE), Liver: 4.54 ± 0.10%
[6]; death caused by a mistake in esophagus incannulation
  Dead/Treated: 1/6
[6]; start 204.1 ± 2.0, vehicle 200.0 ± 4.1 to 233.2 ± 5.1
  Body weight in g (m ± SE), Termination: 210.6 ± 9.6 g
[7]; 500 mg/kg
  Dead/Treated within 7 days: 0/2
[7]; 1000 mg/kg
  Dead/Treated within 7 days: 0/4
[7]; 1000 mg/kg, start 2037 ± 104.3, vehicle 2135 ± 75 to 2262 ± 215
  Body weight (m ± SE), Termination: 1922.5 ± 71.5 g
[7]; 2000 mg/kg
  Dead/Treated within 7 days: 0/2
[7]; 2000 mg/kg, start 2250-2150
  Body weight, Termination: 2180 + 2140 g
Swine dysentery
  dysentery symptoms of diseased members: the diseased members became free from dysentery symptoms
  spread of the disease: The spread of the disease was halted
[8]
  malformations: No malformations in either group were observed
  number of young delivered live at birth: comparable with controls
[9]
  order of acute toxicity: low order toxicity
[9]; listed as G8
  order of acute toxicity: low order of toxicity
[10]; 500 mg/kg/day, gastric gavage, 15 days
  Dead/Treated: 0/10
[10]; 500 mg/kg/day, gastric gavage, 15 days, vehicle 1.4 ± 0.1
  Fresh organ to body weight ratio, Kidneys: 1.5 ± 0.1
[10]; 500 mg/kg/day, gastric gavage, 15 days, vehicle 5.2 ± 0.2
  Fresh organ to body weight ratio, Liver: 5.9 ± 0.3
[10]; 500 mg/kg/day, gastric gavage, 15 days, vehicle 20.4 ± 4.2
  % Body weight change (m ± SE): -8.1 ± 3.9%
[10]; 1 g/kg/day for 15 days, oral, in adraganth gum
  Dead/Treated: 3/12
[10]; 1 g/kg/day for 15 days, oral, in adraganth gum, vehicle 25.04 ± 1.18
  % Body weight change: 16.27 ± 1.31%
[10]; 1 g/kg/day for 15 days, oral, in water
  Dead/Treated: 2/12
[10]; 1 g/kg/day for 15 days, oral, in water, vehicle 24.54 ± 0.64
  % Body weight change: 18.5 ± 0.75%
[10]; oral, in adraganth gum, vehicle 6
  SGPT: 10 Units/ml
[10]; oral, in adraganth gum, vehicle 119
  SGOT: 132 Units/ml
[10]; oral, in water, vehicle 4
  SGPT: 9 Units/ml
[10]; oral, in water, vehicle 116
  SGOT: 124 Units/ml
Treponema hyodysenteriae
  action against Treponema hyodysenteriae (specificity): clearly specific action against Treponema hyodysenteriae
Treponema hyodysenteriae; Brachyspira hyodysenteriae, read-out: minimum inhibitory concentration
  MIC: 0.1 µg/mL (≈ 0.318 µM)
